Measurements taken from ChEMBL document CHEMBL5506023, “Design, Synthesis, and Evaluation of Dihydropyrimidine Derivatives as Selective PDE1 Inhibitors for the Treatment of Liver Fibrosis” (J Med Chem, 2024).
The source made the active and inactive calls. The rule behind the calls is not given here.

Experiments:
[1] = test system: Rattus norvegicus; assay: Antifibrotic activity against bile duct ligation induced Sprague-Dawley rat liver fibrosis model assessed as downregulation of collagen I expression in liver at 2.5 mg/kg,ip administrated once daily for 21 days by Western blotting analysis; format: functional, organism-based; conditions: time 21.0 day
[2] = target: T1, High affinity 3',5'-cyclic-AMP phosphodiesterase 7A (Homo sapiens, UniProt Q13946); assay: Inhibition of PDE7A (130 to 482 residues) (unknown origin) using 3H-cAMP as substrate at 5000 nM relative to control
[3] = target: cAMP and cAMP-inhibited cGMP 3',5'-cyclic phosphodiesterase 10A (Homo sapiens, UniProt Q9Y233); assay: Inhibition of PDE10A (449 to 770 residues) (unknown origin) using 3H-cAMP as substrate
[4] = test system: Rattus norvegicus; assay: Antifibrotic activity against bile duct ligation induced Sprague-Dawley rat liver fibrosis model assessed as reduction in total bile acid level at 2.5 mg/kg,ip administrated once daily for 21 days; format: functional, organism-based; conditions: time 21.0 day
[5] = target: Dual specificity calcium/calmodulin-dependent 3',5'-cyclic nucleotide phosphodiesterase 1C (Homo sapiens, UniProt Q14123); assay: Inhibition of PDE1C2 (147 to 531 residues) (unknown origin) using 3H-cGMP as substrate incubated for 15 mins by liquid scintillation counter analysis
[6] = test system: LX-2; assay: Antifibrotic activity against TGF-beta induced human LX-2 cell activation assessed as downregulation of fibronectin expression incubated for 48 hrs by Western blotting analysis; format: functional, cell-based
[7] = Selectivity index, ratio of IC50 for inhibition of PDE1C2 (147 to 531 residues) (unknown origin) using 3H-cGMP as substrate to IC50 for inhibition of PDE10A (449 to 770 residues) (unknown origin) using 3H-cAMP as substrate
[8] = Observed volume of distribution at steady state in Sprague-Dawley rat at 2.5 mg/kg,iv administration; format: ADME, organism-based; conditions: in vivo, read-out: Vdss
[9] = Selectivity index, ratio of IC50 for inhibition of PDE1C2 (147 to 531 residues) (unknown origin) using 3H-cGMP as substrate to IC50 for inhibition of PDE2A (580 to 919 residues) (unknown origin) using 3H-cGMP as substrate
[10] = AUC (0 to infinity) in Sprague-Dawley rat at 2.5 mg/kg,iv administration; format: ADME, organism-based; conditions: in vivo
[11] = target: Cytochrome P450 2D6 (Homo sapiens, UniProt P10635); assay: Inhibition of CYP2D6 in human liver microsomes in presence of NADPH; format: ADME, Microsome
[12] = target: High affinity cAMP-specific and IBMX-insensitive 3',5'-cyclic phosphodiesterase 8A (Homo sapiens, UniProt O60658); assay: Inhibition of PDE8A (480 to 820 residues) (unknown origin) using 3H-cAMP as substrate
[13] = Selectivity index, ratio of IC50 for inhibition of PDE1C2 (147 to 531 residues) (unknown origin) using 3H-cGMP as substrate to IC50 for inhibition of PDE7A (130 to 482 residues) (unknown origin) using 3H-cAMP as substrate
[14] = target: Cytochrome P450 2C9 (Homo sapiens, UniProt P11712); assay: Inhibition of CYP2C9 in human liver microsomes in presence of NADPH; format: ADME, Microsome
[15] = Cmax in Sprague-Dawley rat at 2.5 mg/kg,iv administration; format: ADME, organism-based; conditions: in vivo
[16] = target: T1, High affinity 3',5'-cyclic-AMP phosphodiesterase 7A; assay: Inhibition of PDE7A (130 to 482 residues) (unknown origin) using 3H-cAMP as substrate
[17] = test system: Rattus norvegicus; assay: Antifibrotic activity against bile duct ligation induced Sprague-Dawley rat liver fibrosis model assessed as reduction in liver damage at 2.5 mg/kg,ip administrated once daily for 21 days by hematoxylin and eosin staining based analysis; format: functional, organism-based; conditions: time 21.0 day
[18] = Selectivity index, ratio of IC50 for inhibition of PDE1C2 (147 to 531 residues) (unknown origin) using 3H-cGMP as substrate to IC50 for inhibition of PDE4D (86 to 413 residues) (unknown origin) using 3H-cAMP as substrate

T1 sequence (Q13946 whole entry, the tested form may be a part): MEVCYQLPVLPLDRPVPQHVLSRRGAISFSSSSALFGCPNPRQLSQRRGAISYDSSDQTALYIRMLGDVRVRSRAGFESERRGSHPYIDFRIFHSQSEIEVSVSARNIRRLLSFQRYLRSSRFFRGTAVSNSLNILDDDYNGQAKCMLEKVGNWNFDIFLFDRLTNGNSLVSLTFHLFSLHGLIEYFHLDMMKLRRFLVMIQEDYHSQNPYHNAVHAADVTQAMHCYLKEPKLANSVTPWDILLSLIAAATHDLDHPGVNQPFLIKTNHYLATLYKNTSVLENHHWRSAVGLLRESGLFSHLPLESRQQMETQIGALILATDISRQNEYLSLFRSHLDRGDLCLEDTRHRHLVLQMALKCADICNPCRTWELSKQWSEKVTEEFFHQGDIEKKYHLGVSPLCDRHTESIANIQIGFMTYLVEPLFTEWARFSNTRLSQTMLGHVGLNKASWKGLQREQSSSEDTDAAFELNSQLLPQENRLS
Cytochrome P450 2D6, sequence (P10635 whole entry, the tested form may be a part): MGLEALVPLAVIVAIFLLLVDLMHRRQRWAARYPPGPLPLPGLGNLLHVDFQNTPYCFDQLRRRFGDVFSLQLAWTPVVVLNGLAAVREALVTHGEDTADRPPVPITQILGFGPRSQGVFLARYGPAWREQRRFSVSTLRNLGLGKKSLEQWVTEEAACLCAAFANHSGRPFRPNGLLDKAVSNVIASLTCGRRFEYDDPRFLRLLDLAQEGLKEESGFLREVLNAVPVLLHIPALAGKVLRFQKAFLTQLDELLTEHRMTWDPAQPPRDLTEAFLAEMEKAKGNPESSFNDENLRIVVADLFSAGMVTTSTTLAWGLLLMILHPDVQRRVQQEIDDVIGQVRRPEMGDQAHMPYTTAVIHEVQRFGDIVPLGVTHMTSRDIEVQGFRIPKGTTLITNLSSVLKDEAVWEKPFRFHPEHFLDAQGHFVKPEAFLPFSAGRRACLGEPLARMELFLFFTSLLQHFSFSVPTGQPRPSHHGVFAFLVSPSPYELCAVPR
Dual specificity calcium/calmodulin-dependent 3',5'-cyclic nucleotide phosphodiesterase 1C, sequence (Q14123 whole entry, the tested form may be a part): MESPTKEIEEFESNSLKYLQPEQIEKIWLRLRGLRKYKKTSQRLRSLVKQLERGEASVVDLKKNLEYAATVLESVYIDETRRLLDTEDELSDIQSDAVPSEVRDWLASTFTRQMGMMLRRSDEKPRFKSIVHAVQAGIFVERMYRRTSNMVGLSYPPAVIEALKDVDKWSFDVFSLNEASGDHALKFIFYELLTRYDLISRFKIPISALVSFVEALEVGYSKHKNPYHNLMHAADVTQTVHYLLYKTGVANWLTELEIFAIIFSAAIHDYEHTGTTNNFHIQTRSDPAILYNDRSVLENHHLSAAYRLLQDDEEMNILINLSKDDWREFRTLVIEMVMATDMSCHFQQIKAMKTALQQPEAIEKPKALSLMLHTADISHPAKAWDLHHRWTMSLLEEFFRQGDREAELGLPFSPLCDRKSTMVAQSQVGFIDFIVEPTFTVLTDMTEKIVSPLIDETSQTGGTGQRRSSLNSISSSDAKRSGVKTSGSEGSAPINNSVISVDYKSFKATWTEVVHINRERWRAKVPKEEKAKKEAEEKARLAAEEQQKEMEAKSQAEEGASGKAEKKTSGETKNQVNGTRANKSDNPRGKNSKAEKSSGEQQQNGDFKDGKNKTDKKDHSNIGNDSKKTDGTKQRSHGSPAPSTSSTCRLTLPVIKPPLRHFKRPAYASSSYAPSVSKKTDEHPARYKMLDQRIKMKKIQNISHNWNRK
cAMP and cAMP-inhibited cGMP 3',5'-cyclic phosphodiesterase 10A, sequence (Q9Y233 whole entry, the tested form may be a part): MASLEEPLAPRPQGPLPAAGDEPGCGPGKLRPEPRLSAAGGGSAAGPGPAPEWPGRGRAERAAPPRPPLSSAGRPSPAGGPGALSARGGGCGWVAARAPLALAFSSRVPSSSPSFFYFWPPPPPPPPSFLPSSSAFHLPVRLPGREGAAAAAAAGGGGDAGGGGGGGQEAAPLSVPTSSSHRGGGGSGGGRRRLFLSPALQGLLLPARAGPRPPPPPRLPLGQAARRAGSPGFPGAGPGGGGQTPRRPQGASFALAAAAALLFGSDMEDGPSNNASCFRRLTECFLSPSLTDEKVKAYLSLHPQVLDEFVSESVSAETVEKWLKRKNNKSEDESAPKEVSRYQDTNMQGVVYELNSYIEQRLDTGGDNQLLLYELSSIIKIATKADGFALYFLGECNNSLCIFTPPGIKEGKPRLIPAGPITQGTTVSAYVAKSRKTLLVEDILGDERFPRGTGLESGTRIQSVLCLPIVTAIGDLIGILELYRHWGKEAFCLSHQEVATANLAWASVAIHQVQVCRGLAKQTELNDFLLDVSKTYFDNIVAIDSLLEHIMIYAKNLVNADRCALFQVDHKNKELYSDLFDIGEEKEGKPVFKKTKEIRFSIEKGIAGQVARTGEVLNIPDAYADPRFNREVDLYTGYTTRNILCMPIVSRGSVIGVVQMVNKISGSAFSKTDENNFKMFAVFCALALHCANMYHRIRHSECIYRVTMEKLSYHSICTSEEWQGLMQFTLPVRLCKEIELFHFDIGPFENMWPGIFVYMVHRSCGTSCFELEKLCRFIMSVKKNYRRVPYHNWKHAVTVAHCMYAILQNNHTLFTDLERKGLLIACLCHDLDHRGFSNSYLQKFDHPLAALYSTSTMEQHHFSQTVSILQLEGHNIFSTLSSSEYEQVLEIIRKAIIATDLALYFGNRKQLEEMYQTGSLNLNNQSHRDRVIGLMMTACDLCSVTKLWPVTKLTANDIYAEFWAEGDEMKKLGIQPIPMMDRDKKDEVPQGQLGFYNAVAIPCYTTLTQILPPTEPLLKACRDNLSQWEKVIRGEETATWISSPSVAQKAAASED
High affinity cAMP-specific and IBMX-insensitive 3',5'-cyclic phosphodiesterase 8A, sequence (O60658 whole entry, the tested form may be a part): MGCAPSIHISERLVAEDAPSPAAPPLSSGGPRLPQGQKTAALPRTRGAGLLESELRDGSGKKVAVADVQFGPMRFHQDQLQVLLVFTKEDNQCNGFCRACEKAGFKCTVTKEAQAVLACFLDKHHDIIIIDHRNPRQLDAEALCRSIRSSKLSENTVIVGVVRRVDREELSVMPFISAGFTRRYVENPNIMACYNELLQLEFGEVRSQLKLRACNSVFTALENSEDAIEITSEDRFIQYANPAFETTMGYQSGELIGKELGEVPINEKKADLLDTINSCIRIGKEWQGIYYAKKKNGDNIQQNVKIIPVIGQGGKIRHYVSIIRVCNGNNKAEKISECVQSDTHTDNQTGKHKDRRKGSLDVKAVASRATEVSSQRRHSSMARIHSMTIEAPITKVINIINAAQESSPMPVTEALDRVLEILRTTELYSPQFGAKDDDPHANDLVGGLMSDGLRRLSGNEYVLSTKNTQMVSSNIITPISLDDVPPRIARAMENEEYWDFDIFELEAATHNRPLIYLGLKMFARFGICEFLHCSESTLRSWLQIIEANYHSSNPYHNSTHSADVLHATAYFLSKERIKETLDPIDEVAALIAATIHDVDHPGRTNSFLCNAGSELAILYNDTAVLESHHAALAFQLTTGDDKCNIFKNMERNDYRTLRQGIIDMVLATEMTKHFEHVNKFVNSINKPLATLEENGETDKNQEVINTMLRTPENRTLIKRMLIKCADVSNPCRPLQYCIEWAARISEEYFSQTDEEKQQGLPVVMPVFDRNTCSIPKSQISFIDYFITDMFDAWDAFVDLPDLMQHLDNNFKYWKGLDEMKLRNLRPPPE
Cytochrome P450 2C9, sequence (P11712 whole entry): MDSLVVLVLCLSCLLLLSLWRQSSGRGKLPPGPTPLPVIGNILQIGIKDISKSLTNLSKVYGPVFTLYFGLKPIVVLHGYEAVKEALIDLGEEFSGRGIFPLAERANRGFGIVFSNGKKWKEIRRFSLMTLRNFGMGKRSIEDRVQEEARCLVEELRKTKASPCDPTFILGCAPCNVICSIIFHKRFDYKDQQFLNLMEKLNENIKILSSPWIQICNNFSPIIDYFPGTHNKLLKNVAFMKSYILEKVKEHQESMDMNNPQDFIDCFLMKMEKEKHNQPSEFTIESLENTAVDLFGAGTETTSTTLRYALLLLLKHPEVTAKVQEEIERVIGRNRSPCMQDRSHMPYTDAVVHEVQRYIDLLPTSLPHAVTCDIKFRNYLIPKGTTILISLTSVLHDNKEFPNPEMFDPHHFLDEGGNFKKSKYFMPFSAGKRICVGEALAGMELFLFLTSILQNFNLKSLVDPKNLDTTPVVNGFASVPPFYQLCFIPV

With CC1=C(C(=O)OCC2CCCCC2)C(c2ccc(OC(F)F)c(OCC3CC3)c2)N(C(=O)SCc2ccccc2)C(=O)N1 (stereo not drawn) the Activity [1] was “Active”, the inhibition [2] was less than 50% and the IC50 [3] was 0.597 µM. The Activity [4] was “Active”, the IC50 [5] was 0.01 µM and the Activity [6] was “Dose-Dependent Effect”. It also gave a Ratio IC50 [7] of 60, a Vd [8] of 0.698 L/kg and a Ratio IC50 [9] of 354. It also gave an AUC(0-inf) [10] of 6320 ng·h/mL, an IC50 [11] greater than 25 µM and an IC50 [12] of 1.76 µM. It also gave a Ratio IC50 [13] greater than 500, an IC50 [14] greater than 25 µM and a Cmax [15] of 25000 ng/mL. For the same compound, the IC50 [16] was greater than 5 µM, the Activity [17] was “Active” and the Ratio IC50 [18] was 205.
